The experiment addresses Cell division control protein 42 homolog (Homo sapiens) (UniProt P60953). In words: Cdc42 wildtype GTP-binding inhibitors, late-stage follow-up, mechanism study for Ras-family GTPase inhibitor project, biochemical, protein source comparison, flow cytometry beads, Bodipy-FL-GTP (AID 720688). To be noted: GST-Cdc42 beads.

Active and inactive are the calls of the source.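 How the source made its calls: active means half-effect concentration at most 10 µM, response change at least 30% across doses, and a curve fit passing quality checks; inactive means the rest.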

Sequence of Cell division control protein 42 homolog (Homo sapiens) (P60953 whole entry, looked up): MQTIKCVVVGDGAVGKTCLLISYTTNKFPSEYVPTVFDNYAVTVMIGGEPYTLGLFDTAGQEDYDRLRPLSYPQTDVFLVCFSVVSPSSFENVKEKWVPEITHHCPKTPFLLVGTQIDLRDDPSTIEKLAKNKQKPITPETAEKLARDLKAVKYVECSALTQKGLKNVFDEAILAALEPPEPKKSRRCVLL

The EC50 is the concentration at which the effect is half-maximal. Take `CC1(C)Cc2c(sc(NC(=S)NC(=O)c3cccc(N=[N+]=[N-])c3)c2C(=O)O)CO1`: the EC50 (protein source 2) turned out to be 18.6 µM.
Take `CC1(C)Cc2c(sc(NC(=S)NC(=O)c3ccc(N=[N+]=[N-])cc3)c2C(=O)O)CO1`: the “% response remaining, lower = inhibition” value (protein source 2, at 100 µM (top of the series)) was “inactive”.

The record behind these values is PubChem BioAssay AID720688 (NMMLSC, 2013).
